Experimental data from patent publication US20050020630A1, “Cycloalkyl and heterocycloalkyl substituted benzothiophenes as therapeutic agents” (priority 2003, published 2005).

target: T1, PI3Kγ (Homo sapiens, UniProt P48736); test: PI3Kγ In Vitro Kinase Assay; type: biochemical; details: purified recombinant p101/p110 γ protein with G protein β1/γ2 subunits; 20 μM ATP, 25 μM PIP2; 20 minutes at room temperature; radioactive PIP3 readout
T1 construct: HA; made in house; host or cells: Spodoptera frugiperda (Sf9) cells, baculovirus co-infection
T1 sequence (P48736 whole entry, species assumed): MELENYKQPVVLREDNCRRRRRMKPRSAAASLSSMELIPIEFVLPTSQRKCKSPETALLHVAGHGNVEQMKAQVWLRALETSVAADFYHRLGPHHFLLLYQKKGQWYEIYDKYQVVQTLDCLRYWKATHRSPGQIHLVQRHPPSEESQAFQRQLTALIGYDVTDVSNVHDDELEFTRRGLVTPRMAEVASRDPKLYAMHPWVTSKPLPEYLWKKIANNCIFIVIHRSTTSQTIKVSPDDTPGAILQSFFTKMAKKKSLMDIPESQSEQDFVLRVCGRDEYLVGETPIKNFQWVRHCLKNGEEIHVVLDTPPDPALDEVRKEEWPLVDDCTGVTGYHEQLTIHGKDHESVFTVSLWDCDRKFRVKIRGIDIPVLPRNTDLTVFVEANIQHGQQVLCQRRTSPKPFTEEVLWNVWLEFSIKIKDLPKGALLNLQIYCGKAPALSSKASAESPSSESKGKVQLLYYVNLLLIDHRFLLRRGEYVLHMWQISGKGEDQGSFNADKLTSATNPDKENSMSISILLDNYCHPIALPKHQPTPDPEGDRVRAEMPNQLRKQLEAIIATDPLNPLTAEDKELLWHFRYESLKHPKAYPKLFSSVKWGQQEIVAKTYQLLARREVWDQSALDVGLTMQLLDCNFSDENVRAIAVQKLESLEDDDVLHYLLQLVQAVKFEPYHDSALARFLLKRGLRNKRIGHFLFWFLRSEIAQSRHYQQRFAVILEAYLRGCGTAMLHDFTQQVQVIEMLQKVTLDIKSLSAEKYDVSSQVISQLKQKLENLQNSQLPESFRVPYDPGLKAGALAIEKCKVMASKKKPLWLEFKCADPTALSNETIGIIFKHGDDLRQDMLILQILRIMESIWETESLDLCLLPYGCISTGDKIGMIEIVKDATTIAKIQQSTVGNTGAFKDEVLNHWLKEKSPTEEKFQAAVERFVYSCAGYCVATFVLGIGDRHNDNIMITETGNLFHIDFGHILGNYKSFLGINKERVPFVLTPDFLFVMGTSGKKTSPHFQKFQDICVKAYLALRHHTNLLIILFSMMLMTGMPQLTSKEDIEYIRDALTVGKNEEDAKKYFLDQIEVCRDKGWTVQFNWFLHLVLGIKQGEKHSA
T1 sequence (Q8WYR1 whole entry partner, species assumed): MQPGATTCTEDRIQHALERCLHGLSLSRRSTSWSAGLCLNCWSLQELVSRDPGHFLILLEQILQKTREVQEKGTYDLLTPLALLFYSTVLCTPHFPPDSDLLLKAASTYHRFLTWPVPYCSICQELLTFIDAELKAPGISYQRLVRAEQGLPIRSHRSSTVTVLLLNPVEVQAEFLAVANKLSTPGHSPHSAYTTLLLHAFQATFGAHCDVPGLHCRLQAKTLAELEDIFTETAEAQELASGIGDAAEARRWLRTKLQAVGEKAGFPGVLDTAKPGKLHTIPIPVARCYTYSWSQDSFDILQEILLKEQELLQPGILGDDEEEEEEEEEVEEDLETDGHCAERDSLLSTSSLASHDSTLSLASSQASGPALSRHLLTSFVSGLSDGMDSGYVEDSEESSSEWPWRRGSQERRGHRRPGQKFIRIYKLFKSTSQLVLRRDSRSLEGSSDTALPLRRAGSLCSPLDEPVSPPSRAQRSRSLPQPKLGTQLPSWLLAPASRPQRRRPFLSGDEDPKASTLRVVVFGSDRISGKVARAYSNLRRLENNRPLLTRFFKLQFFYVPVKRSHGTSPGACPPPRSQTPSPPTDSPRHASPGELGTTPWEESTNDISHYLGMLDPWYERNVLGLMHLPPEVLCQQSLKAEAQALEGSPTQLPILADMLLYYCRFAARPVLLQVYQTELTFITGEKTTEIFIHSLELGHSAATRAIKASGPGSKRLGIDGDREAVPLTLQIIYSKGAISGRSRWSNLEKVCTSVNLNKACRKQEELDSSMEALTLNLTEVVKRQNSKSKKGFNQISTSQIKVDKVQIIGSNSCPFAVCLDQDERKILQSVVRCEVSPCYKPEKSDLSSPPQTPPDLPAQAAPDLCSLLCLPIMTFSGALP
Description: Spodtera frugiperda cells, grown in ESF921 media, were coinfected with baculovirus expressing a glu-tagged p101 and baculovirus expressing an HA-tagged p110γ, at a 3:1 ratio of p101 baculovirus to p110γ baculovirus. Sf9 cells were grown to 1×10^7 total cells/mL in 10 L bioreactors and harvested 48-72 hours post infection. Samples of infected cells were then tested for expression of p101/p110 γ PI3 kinase by immunoprecipitation and Western Blot analysis methods (see below). To purify PI3Kγ, 4 volumes of room temperature hypotonic lysis buffer (1 mM MgCl2, 1 mM DTT, 5 mM EGTA, 1 mM Pefabloc, 0.5 μM aprotinin, 5 μM leupeptin, 2 μM pepstatin, 5 μM E64, pH 8) per gram of cell paste, was poured onto frozen cell pellets with stirring, then lysed in a nitrogen “bomb” at 400 psi (599HC […], Parr Instrument Co, Moline, Ill.). NaCl was added to 150 mM, and sodium cholate was added to 1% and mixed for another 45 minutes. The lysates were clarified by centrifugation for 25 minutes at 14,000 rpm. The lysates were then loaded over anti-glu-linked Protein-G Sepaharose beads (Covance Research Products, Richmond, Calif.) using 20 mL resin/50 g cell paste. The column was washed with 15 volumes of wash buffer (1 mM DTT, 0.2 mM EGTA, 1 mM Pefabloc, 0.5 μM aprotinin, 5 μM leupeptin, 2 μM pepstatin, 5 μM E64, 150 mM NaCl, 1% sodium cholate, pH 8). PI3Kγ was eluted with 6 column volumes of wash buffer that contain 100 μg/mL of a peptide that competes for binding of the glu tag. The column fractions with the eluted protein (determined by taking OD280 readings) were collected and dialyzed in 0.2 mM EGTA, 1 mM DTT, 1 mM Pefabloc, 5 μM leupeptin, 0.5% sodium cholate, 150 mM NaCl, and 50% glycerol, pH 8. The fractions were stored at -80° C. until further use. Spodtera frugiperda cells were coinfected with baculovirus expressing a glu-tagged G protein β1 and baculovirus expressing a G protein β2, at a 1:1 ratio of glu-tagged G protein β1 baculovirus to G protein β2 baculovirus. Sf9 cells are grown in 10 L bioreactors and harvested 48-72 hours post infection. Samples of infected cells were tested for G protein β1/β2 expression by Western Blot analysis, as described below. Cell lysates were homogenized and loaded onto a column of glu-tagged beads as in Biological Example 1 and competed off the column with a glu peptide and processed as described in Biological Example 1. The inhibitory properties of the compounds in Table 1 were assayed in an in vitro PI3K assay. In a 96-well polypropylene plate, each well was spotted with 2 μL of 50 times the desired final concentration of compound in DMSO. Purified recombinant p101/p110 γ protein (0.03 μg; 2.7 nM) and G protein β1/γ2 subunits (0.09 μg; 57.7 nM) for each reaction was combined in the assay buffer (30 mM HEPES, 100 mM NaCl, 1 mM EGTA, and 1 mM DTT). ATP and [γ-^32P-ATP] (0.09 μCi) were added to this mixture so that the final ATP concentration in the reaction was 20 μM. Lipid micelles were formed by sonicating phosphatidylinositol-4,5-diphosphate (PIP2), phosphatidylethanolamine (PE), and Na-cholate in the assay buffer for 10 minutes, adding MgCl2 and incubating on ice for 20 minutes, for final concentrations of 25 μM PIP2, 300 μM PE, 0.02% Na-cholate, and 10 mM MgCl2 in the reaction. The reactions were started by adding equal volumes lipid and enzyme mixture in a total volume of 50 μL, allowed to run for 20 minutes at room temperature, and stopped with 100 μL 75 mM H3PO4. The lipid product was transferred to a glass fiber filter plate and washed with 75 mM H3PO4 several times. The presence of radioactive lipid product (PIP3) was measured by adding Wallac Optiphase mix to each well and counting in a Wallac 1450 Trilux plate reader (PerkinElmer Life Sciences Inc., Boston, Mass. 02118). The IC50 for each compound tested is reported in μM in Table 1: […]

Structure (SMILES) | IC50
COc1cc2sc(C(=O)Nc3nnn[nH]3)c(OC3CCCCC3C)c2cc1OC (stereo not drawn) [Example 26, 5,6-Dimethoxy-3-(2-methyl-cyclohexyloxy)-benzo[b]thiophene-2-carboxylic acid (1H-tetrazol-5-yl)-amide] | 101 nM
COc1cc2sc(C(=O)Nc3nnn[nH]3)c(OC3CCOC3)c2cc1OC (stereo not drawn) [Example 27, 5,6-Dimethoxy-3-(tetrahydro-furan-3-yloxy)-benzo[b]thiophene-2-carboxylic acid (1H-tetrazol-5-yl)-amide] | 575 nM
CCC1(COc2c(C(=O)Nc3nnn[nH]3)sc3cc(OC)c(OC)cc23)COC1 [Example 28, 3-(3-Ethyl-oxetan-3-ylmethoxy)-5,6dimethoxy-benzo[b]thiophene-2-carboxylic acid (1H-tetrazol-5-yl)-amide] | 245 nM
COc1cc2sc(C(=O)Nc3nnn[nH]3)c(OCC3C4CCC(C4)C3C)c2cc1OC (stereo not drawn) [Example 29, 5,6 Dimethoxy-3-(3-methyl-bicyclo[2.2.1]hept-2-ylmethoxy)-benzo[b]thiophene-2-carboxylic acid (1H-tetrazol-5-yl)-amide] | 14 nM
COc1cc2sc(C(=O)Nc3nnn[nH]3)c(OC3CCC(C4CCCCC4)CC3)c2cc1OC (stereo not drawn) [Example 30, 3-(Bicyclohexyl-4-yloxy)-5,6-dimethoxy-benzo[b]thiophene-2-carboxylic acid (1H-tetrazol-5-yl)-amide] | 110 nM
COc1cc2sc(C(=O)Nc3nnn[nH]3)c(OC3CCC(C)C3)c2cc1OC (stereo not drawn) [Example 31, 5,6-Dimethoxy-3-(3-methyl-cyclopentyloxy)-benzo[b]thiophene-2-carboxylic acid (1H-tetrazol-5-yl)-amide] | 63 nM
COc1cc2sc(C(=O)Nc3nnn[nH]3)c(OCC3CC=CCC3)c2cc1OC (stereo not drawn) [Example 32, 3-(Cyclohex-3-enylmethoxy)-5,6-dimethoxy-benzo[b]thiophene-2-carboxylic acid (1H-tetrazol-5-yl)-amide] | 101 nM
COc1cc2sc(C(=O)Nc3nnn[nH]3)c(OC3CCCCCCC3)c2cc1OC [Example 33, 3-Cyclooctyloxy-5,6-dimethoxy-benzo[b]thiophene-2-carboxylic acid (1H-tetrazol-5-yl)-amide] | 48 nM
COc1cc2sc(C(=O)Nc3nnn[nH]3)c(OCC3CC3)c2cc1OC [Example 35, 3-Cyclopropylmethoxy-5,6-dimethoxy-benzo[b]thiophene-2-carboxylic acid (1H-tetrazol-5-yl)-amide] | 350 nM
COc1cc2sc(C(=O)Nc3nnn[nH]3)c(OCCCC3CCCCC3)c2cc1OC [Example 36, 3-(3-Cyclohexyl-propoxy)-5,6-dimethoxy-benzo[b]thiophene-2-carboxylic acid (1H-tetrazol-5-yl)-amide] | 23 nM
COc1cc2sc(C(=O)Nc3nnn[nH]3)c(OCC3(C)CC3)c2cc1OC [Example 37, 5,6-Dimethoxy-3-(1-methyl-cyclopropylmethoxy)-benzo[b]thiophene-2-carboxylic acid (1H-tetrazol-5-yl)-amide] | 51 nM
COc1cc2sc(C(=O)Nc3nnn[nH]3)c(OCC3CCC3)c2cc1OC [Example 38, 3-Cyclobutylmethoxy-5,6-dimethoxy-benzo[b]thiophene-2-carboxylic acid (1H-tetrazol-5-yl)-amide] | 72 nM
COc1cc2sc(C(=O)Nc3nnn[nH]3)c(OC3CCCCCC3)c2cc1OC [Example 39, 3-Cycloheptyloxy-5,6-dimethoxy-benzo[b]thiophene-2-carboxylic acid (1H-tetrazol-5-yl)-amide] | 37 nM
COc1cc2sc(C(=O)Nc3nnn[nH]3)c(OC3CCC3)c2cc1OC [Example 40, 3-Cyclobutoxy-5,6-dimethoxy-benzo[b]thiophene-2-carboxylic acid (1H-tetrazol-5-yl)-amide] | 92 nM
COc1cc2sc(C(=O)Nc3nnn[nH]3)c(OC3CCOCC3)c2cc1OC [Example 41, 5,6-Dimethoxy-3-(tetrahydro-pyran-4-yloxy)-benzo[b]thiophene-2-carboxylic acid (1H-tetrazol-5-yl)-amide] | 83 nM
COc1cc2sc(C(=O)Nc3nnn[nH]3)c(OCC3CCCC3)c2cc1OC [Example 43, 3-Cyclopentylmethoxy-5,6-dimethoxy-benzo[b]thiophene-2-carboxylic acid (1H-tetrazol-5-yl)-amide] | 101 nM
CCC(Oc1c(C(=O)Nc2nnn[nH]2)sc2cc(OC)c(OC)cc12)C1CCCCC1 (stereo not drawn) [Example 44, 3-(1-Cyclohexyl-propoxy)-5,6-dimethoxy-benzo[b]thiophene-2-carboxylic acid (1H-tetrazol-5-yl)-amide] | 160 nM
COc1cc2sc(C(=O)Nc3nnn[nH]3)c(OC3CCC(C)C(C)C3)c2cc1OC (stereo not drawn) [Example 45, 3-(3,4-Dimethyl-cyclohexyloxy)-5,6-dimethoxy-benzo[b]thiophene-2-carboxylic acid (1H-tetrazol-5-yl)-amide] | 52 nM
COc1cc2sc(C(=O)Nc3nnn[nH]3)c(OC3CC(C)CC(C)C3)c2cc1OC (stereo not drawn) [Example 46, 3-(3,5-Dimethyl-cyclohexyloxy)-5,6-dimethoxy-benzo[b]thiophene-2-carboxylic acid (1H-tetrazol-5-yl)-amide] | 30 nM
COc1cc2sc(C(=O)Nc3nnn[nH]3)c(OC3CCC4CCCCC4C3)c2cc1OC (stereo not drawn) [Example 47, 3-(Decahydro-naphthalen-2-yloxy)-5,6-dimethoxy-benzo[b]thiophene-2-carboxylic acid (1H-tetrazol-5-yl)-amide] | 112 nM
COc1cc2sc(C(=O)Nc3nnn[nH]3)c(OC3CC(C)CC(C)(C)C3)c2cc1OC (stereo not drawn) [Example 48, 5,6-Dimethoxy-3-(3,3,5-trimethyl-cyclohexyloxy)-benzo[b]thiophene-2-carboxylic acid (1H-tetrazol-5-yl)-amide] | 170 nM
COc1cc2sc(C(=O)Nc3nnn[nH]3)c(OC3CCN(Cc4ccccc4)CC3)c2cc1OC [Example 49, 3-(1-Benzyl-piperidin-4-yloxy)-5,6-dimethoxy-benzo[b]thiophene-2-carboxylic acid (1H-tetrazol-5-yl)-amide] | 2550 nM
COc1cc2sc(C(=O)Nc3nnn[nH]3)c(OC3CCCC3)c2cc1OC [Example 50, 3-Cyclopentyloxy-5,6-dimethoxy-benzo[b]thiophene-2-carboxylic acid (1H-tetrazol-5-yl)-amide] | 120 nM
COc1cc2sc(C(=O)Nc3nn[nH]n3)c(OC3CCCCC3)c2cc1C [Example 51, 3-Cyclohexyloxy-6-methoxy-5-methyl-benzo[b]thiophene-2-carboxylic acid (2H-tetrazol-5-yl)-amide] | 20 nM
